For data set [1] the following is noted: acetic acid.
A short description of another data set: physchem. Conditions: EtOH/EtOAc/Tol, organic solvent or mixture, Solubility-Org (EtOH/EtOAc/Tol).
The conditions of data set [2]: acetic acid. This is another data set of the same source.
Another data set deals with uterine response. Conditions: preclinical models of uterine stimulation; cited from earlier work.
Data set [3] has as its system ovariectomized rat model of osteopenia. Conditions: cited from earlier work.
For data set [4], the system named is MCF-7 cell line (human breast cancer cell line). Conditions: MCF-7 human breast cancer cell line; cited from earlier work.

Molecules are shown by their SMILES. ≈ marks a conversion by molar mass, not a printed value.

Usually solubility stands for how much of the substance goes into solution per volume. In the case of `Cc1c(-c2ccc(O)cc2)n(Cc2ccc(OCCN3CCCCCC3)cc2)c2ccc(O)cc12` [Form A, 1-[4-(2-azepan-1-yl-ethoxy)-benzyl]-2-(4-hydroxy-phenyl)-3-methyl-1H-indol-5-ol acetic acid], the Solubility-Water in data set [1] is 0.49 mg/mL (≈ 1.04 mM). Besides, the solubility in the data set “physchem” turned out to be 24.5 mg/mL (≈ 52.1 mM).

As for `Cc1c(-c2ccc(O)cc2)n(Cc2ccc(OCCN3CCCCCC3)cc2)c2ccc(O)cc12` [Form B, 1-[4-(2-azepan-1-yl-ethoxy)-benzyl]-2-(4-hydroxy-phenyl)-3-methyl-1H-indol-5-ol acetic acid], the Solubility-Water in data set [1] was 0.23 mg/mL (≈ 0.489 mM). Moreover, the “Solubility-Org (EtOH/EtOAc/Tol)” value in data set [2] came out at 12.4 mg/mL (≈ 26.3 mM).

In the case of `Cc1c(-c2ccc(O)cc2)n(Cc2ccc(OCCN3CCCCCC3)cc2)c2ccc(O)cc12` [bazedoxifene acetate, 1-[4-(2-azepan-1-yl-ethoxy)-benzyl]-2-(4-hydroxy-phenyl)-3-methyl-1H-indol-5-ol acetic acid], the “stimulation of uterine response” value in the data set on uterine response was “little or no stimulation of uterine response”. Also, in data set [3], the “effect on bone loss” value was “estrogen agonist-like effect in preventing bone loss” and the effect on cholesterol entry is “reducing cholesterol”. Further, in data set [4], the “estrogen agonist/antagonist behaviour in MCF-7 cells” value is recorded as “behaves as an estrogen antagonist”.

Values taken from patent US7683051B2, “Crystalline polymorph of bazedoxifene acetate” (Wyeth, priority 2004, dated 2010).
